Measurements from patent US10488417B2, “Compounds for use as imaging agents” (United Arab Emirates University, priority 2014, dated 2019).

How the values were obtained:
[1] = target: T1, α-synuclein (Homo sapiens, UniProt P37840); assay: α-synuclein oligomerization by immunoblot analysis; type: biochemical; conditions: compound: α-syn molar ratios 1:1, 2:1, 4:1; 5 days
T1 construct: GST (N, cleaved yes); made in house; host or cells: E. coli BL21
Description: Samples of α-synuclein (20 ng) incubated alone or with the compounds were mixed with 1× sample buffer (250 mM Tris-HCl, pH 6.8, 30% glycerol, 0.02% bromophenol blue) and then separated in 15% 1 mm SDS-PAGE gels. The separated proteins were transferred to 0.45 μm nitrocellulose membranes (Whatman Gmbh-Germany) at 90 V for 80 min. The membranes were boiled for 5 min in PBS and then blocked for 1 hour with 5% non-fat milk prepared in PBS-Tween-20 (0.05%; PBST). The membranes were incubated overnight at 4° C. with the primary mouse monoclonal anti-α-syn (211) antibody, which recognizes human α-synuclein (121-125) (Santa Cruz Biotechnology, USA), at a dilution of 1:1000. The membranes were then washed several times with PBST, followed by incubation with an HRP-conjugated goat anti-mouse antibody (Dako Ltd., Ely, UK) at a dilution of 1:70,000 for 60 minutes at room temperature with gentle agitation. The membranes were then extensively washed for 25 min, and immunoreactive bands were visualized with the Super Signal West Femto Chemiluminescent Substrate Kit (Pierce, Rockford, USA) according to the manufacturer's instructions.
The effect of Gn Rb1, salvianolic acid B and dihydromyricetin on α-synuclein oligomerization was assessed by immunoblot analysis. Fresh and aged solutions of α-synuclein alone or in the presence of Gn Rb1, salvianolic acid B or dihydromyricetin were analyzed. Samples were separated in 15% SDS gels, transferred onto a nitrocellulose membrane and probed with an antibody that recognizes the amino acid residues 121-125 of α-synuclein. The majority of freshly prepared α-synuclein migrated as a band at ˜16 KDa, corresponding to α-synuclein monomers (FIGS. 4A-C).
The amount of monomeric α-synuclein in the α-synuclein aged alone samples and in the presence of compounds was quantified against a fresh α-synuclein sample that contained only the monomeric species using ImageJ software.

[2] = target: T1, α-synuclein; assay: Seeding polymerization assay of α-synuclein monomers (Th-T, TEM); type: biochemical; conditions: for inhibition of the seeding process / inhibition at 50 µM: 6 hours, 100 μM monomeric α-synuclein, 2 μM seeds; for inhibition at 50 µM: read-out: inhibition of the seeding process
Description: The aggregation of monomeric α-synuclein with or without seeding was performed as described elsewhere. The seeds were prepared by fragmenting the mature α-synuclein fibrils by sonication to obtain short fibrils, which were employed as ‘seeds’. Briefly, monomeric α-synuclein at a concentration of 100 μM was seeded with 2 μM of seeds and incubated in the presence or absence of the compounds (10 μM or 50 μM) at 37° C. for 6 hours with continuous shaking. The fibrillization was monitored by Th-T binding assay as described above.
To assess the effect of salvianolic acid B, dihydromyricetin and Gn Rb1 on the seeding of α-synuclein aggregation, the compounds were added at concentrations of 10 or 50 μM to 100 μM monomeric α-synuclein containing seeds at a final concentration of 2 μM. The mixture was then incubated with continuous mixing at 37° C. for 6 hours.

[3] = test system: BE(2)-M17 human neuroblastoma cells; assay: α-synuclein-induced cytotoxicity, MTT cell viability; type: cell-based
Description: BE(2)-M17 human neuroblastoma cells were routinely cultured in Dulbecco's MEM/Nutrient Mix F-12 (1:1) (Gibco BRL, Rockville, Md.) containing 15% fetal bovine serum and 1% penicillin-streptomycin (P/S; 100 U/ml penicillin, […]). The cells were maintained at 37° C. in a humidified incubator with 5% CO2/95% air.
BE(2)-M17 cells suspended in DMEM medium were plated at a density of 15,000 cells (100 μL/well) in a 96-well plate. After 24 hours, the medium was replaced with 200 μL of OPTI-MEM (Gibco-USA) serum-free medium containing aged α-synuclein solutions with or without the compounds. Aged α-synuclein and compound-containing solutions were diluted in OPTI-MEM to obtain the desired concentration. Cells were then incubated at 37° C. in 5% CO2 for 48 hours. A total of 20 μL of MTT (3-(4,5-dimethylthiazol-2-yl)-2,5-diphenyltetrazolium bromide) (Sigma-Aldrich, USA) (6 mg/ml) in PBS was dispensed into each well, and the plate was incubated at 37° C. for 4.5 hours. The MTT-containing medium was carefully removed, and 100 μL of lysis buffer (15% SDS, 50% N,N-dimethylformamide, pH 4.7) was added to each well. The lysis buffer was incubated overnight at 37° C. before the absorbance values at 590 nm were determined by a microplate reader (Perkin Elmer).
BE(2)-M17 human neuroblastoma cells were treated with aged α-synuclein solutions at three different concentrations, 0.5 μM, 1 μM and 5 μM, either alone or in the presence of Gn Rb1, salvianolic acid B or dihydromyricetin.
The viability of cells treated with α-synuclein aged in the presence or absence of the Gn Rb1, salvianolic acid B or dihydromyricetin was determined by the MTT assay. Prior to the experiments, the effect of the Gn Rb1, salvianolic acid B and dihydromyricetin alone on cell viability was assessed (data not shown), employing the same non-toxic Gn Rb1, salvianolic acid B and dihydromyricetin concentrations that were later employed for the experiments with aged α-synuclein.

[4] = target: T1, α-synuclein; assay: Transmission electron microscopy of α-synuclein aged with compounds; type: biochemical; conditions: 25 μM α-synuclein, 5 days, molar ratios 4:1, 2:1, 1:1
Description: Electron images were produced from α-synuclein aged alone or in the presence of the compounds. The samples (5 μL) were deposited on Formvar-coated 400-mesh copper grids (Agar Scientific, UK), fixed briefly with 0.5% glutaraldehyde (5 μL), negatively stained with 2% uranyl acetate (Sigma-Aldrich, USA) and examined with a Philips CM-10 TEM electron microscope.

[5] = 5 μM aged α-synuclein, all concentrations of compound, 48 hours, MTT

CC(C)=CCC[C@](C)(O[C@@H]1O[C@H](CO[C@@H]2O[C@H](CO)[C@@H](O)[C@H](O)[C@H]2O)[C@@H](O)[C@H](O)[C@H]1O)[C@H]1CC[C@]2(C)[C@@H]1[C@H](O)C[C@@H]1[C@@]3(C)CC[C@H](O[C@@H]4O[C@H](CO)[C@@H](O)[C@H](O)[C@H]4O[C@@H]4O[C@H](CO)[C@@H](O)[C@H](O)[C@H]4O)C(C)(C)[C@@H]3CC[C@]12C [Gn Rb1, ginsenoside Rb1]
effect on α-synuclein oligomerization (immunoblot, densitometry) [1]: potent inhibitor of α-synuclein oligomerization at all molar ratios
TEM appearance of seeded α-synuclein with compound ([2]; after 6 h of incubation, compound 50 μM): mostly globular forms of α-synuclein
inhibition of the seeding process ([2]; compound 10 μM): approximately 60%
inhibition of the seeding process ([2]; compound 50 μM): approximately 90%
improvement of viability of the cells ([3]; 1 μM aged α-synuclein, all used concentrations of compound, MTT): approximately 30%
cells surviving [3, 5]: approximately 80%
increase in viability of the cells [3, 5]: approximately 30%
TEM appearance of α-synuclein aged in the presence of compound [4]: thin, short rod-like fibrils, with a fragmented appearance

O=C1c2c(O)cc(O)cc2O[C@H](c2cc(O)c(O)c(O)c2)[C@H]1O [dihydromyricetin]
effect on α-synuclein oligomerization (immunoblot, densitometry) [1]: inhibited α-synuclein oligomerization in a dose-dependent fashion
inhibition of the seeding process ([2]; compound 10 μM): showed an inhibitory effect
inhibition at 50 µM ([2]; compound 50 μM): ~90%
improvement of cell viability ([3]; highest concentration, molar ratio of 4:1, MTT): approximately 10%
TEM appearance of α-synuclein aged in the presence of compound [4]: thin, short rod-like fibrils, with a fragmented appearance

O=C(/C=C/c1ccc(O)c2c1[C@H](C(=O)O[C@H](Cc1ccc(O)c(O)c1)C(=O)O)[C@@H](c1ccc(O)c(O)c1)O2)O[C@H](Cc1ccc(O)c(O)c1)C(=O)O [salvianolic acid B]
effect on α-synuclein oligomerization (immunoblot, densitometry) [1]: inhibited α-synuclein oligomerization in a dose-dependent fashion
inhibition of the seeding process ([2]; compound 10 μM): to a smaller extent
inhibition at 50 µM ([2]; compound 50 μM): ~90%
cells survived ([3]; α-synuclein aged with compound at molar ratios of 4:1 and 2:1, MTT): approximately 95%
TEM appearance of α-synuclein aged in the presence of compound [4]: thin, short rod-like fibrils, with a fragmented appearance
